Measurements: US20120010148A1, “COMBINATION THERAPIES USING NAP” (ALLON THERAPEUTICS INC., priority 2008, published 2012)
“Also recorded” adds a separate entry of the source.

Key:
[1] = test system: Human SH-SY5Y neuroblastoma; test: Clozapine-induced cell death in SH-SY5Y cells, MTS assay; assay type: cell-based; conditions: 24 hours
Excerpt: Clozapine, a widely used anti psychotic drug may be associated with increased cell mortality. It was not known, however, whether NAP ([…], SEQ ID NO:2) treatment would inhibit clozapine associated neuronal death. To address this question and validate the efficiency of using a NAP-clozapine combination drug candidate, an experimental test system in cell culture was established (Heiser et al., Journal of Psychopharmacology 21(8):851-856 (2007)). Human SH-SY5Y neuroblastoma supplemented with 15% fetal calf serum (FCS) (Beit-Haemek, Israel), 1% penicillin-streptomycin, and 1% glutamine were incubated in a 5% CO2 atmosphere. Thirty-six thousand cells/well (in a 96 well plates) were plated 24 hours prior to the clozapine or NAP treatment. Clozapine (CLZ) was obtained from Sigma Chemicals (Sigma, Israel). Thirty-six thousand cells per well (in at least 6 replicate wells) were exposed to clozapine (CLZ, 20 μg/ml) or clozapine (CLZ, 20 μg/ml)+NAP or NAP alone (10^−15M-10^−10 M) for 24 hours at 37° C. Drug and control solutions were dissolved in ethanol. Measurement of metabolic activity and survival was determined by non-radioactive cell proliferation assay (MTS) (Promega, USA) and evaluated by an ELISA-reader at 490 nm wavelength.

[2] = test system: Rat pheochromocytoma cells (PC12); test: Serum-deprivation survival of PC12 cells, MTS viability assay; assay type: cell-based
Procedure: The survival-promoting effects of galantamine (an acetylcholine-esterase inhibitor, or AcEI), NAP, and their combinatorial treatment were assessed in cell cultures. Cell culture method was adapted from Calderon et al., J Neurosci Res 56, 620-631 (1999).
Rat pheochromocytoma cells (PC12) were grown in Dulbecco's modified Eagle's medium (DMEM) supplemented with 8% fetal calf serum, 8% horse donor serum, 2 mm L-glutamine, and 1% penicillin-streptomycin solution.
For the experiments, cells were harvested, re-suspended, and seeded in 96-well plates at a concentration of 1.5×10^4 cells/well. Cells were pretreated with NAP and Galantamine [Galantamine (0.1, 0.5, 1, 10 μM); NAP (10^−8M, 10^−1° M, 10^−12M, 10^−15M)] 3 hours prior to serum deprivation and during serum deprivation. The assay for cell viability was performed 48 hours after serum deprivation. Calibration method is described below.
Culture medium was replaced by fresh medium without serum, containing NAP and Galantamine. Cells were incubated for 48 hours and then subject to MTS viability assay.
PC12 cells were seeded and treated as mentioned above without any drugs for 24 hours, 48 hours, and 72 hours. MTS results are represented by the percentage of viable cells from the serum deprived treatment vs. control treatment.

STOP+/− mice [3] = test: Open field locomotor activity; assay type: in vivo, mouse
Procedure: The NAP vehicle solution (termed DD), included the following ingredients (per milliliter): 7.5 mg of NaCl, 1.7 mg of citric acid monohydrate, 3 mg of disodium phosphate dihydrate, and 0.2 mg of benzalkonium chloride solution (50%) (Alcalay R N et al., Neurosci Lett, 361(1-3): 128-131 (2004)). NAP or vehicle solution (DD) was administered to mice hand-held in a semisupine position with nostrils facing the investigator. A pipette tip was used to administer 2.5 μl/nostril. The mouse was hand-held until the solution was totally absorbed (10 s). […] STOP+/− male mice (5 months old, n=4) received daily doses of 10 mg/kg intraperitoneal injection (IP) of clozapine (5 days a week), for the duration of the experiment (7 weeks). A control STOP+/− male mice group (5 month old, n=3) were injected daily with saline. NAP treatment included daily (5 days a week) intranasal administrations (0.5 μg/5 μl/mouse/day) for 7-10 weeks. For intranasal administration, the peptide was dissolved in the vehicle solution (termed DD) described above. Each experimental group included 10-12 mice, 4-12 month-old; mean age 6 months). […]
Locomotor activity was measured in 5 consecutive sessions, 3 minutes each and the mean path length in cm of each mouse in the 3 minute sessions per the entire 15 minute period of observation in open field (80 cm diameter) was determined. […]

STOP+/− mice [4] = test: Social recognition test; assay type: in vivo; conditions: 8-month-old STOP+/− mice; NAP 0.5 microgram/mouse/day, clozapine 3 mg/kg/day, FIG. 16
Procedure: In the social recognition test, 8-month-old mice (STOP+/−) were habituated for 20 minutes in a cage and then exposed to a new juvenile mouse (1.5-month old) for one minute—followed by a 30-minute interval and another 1 minute exposure four times (familiarizing the test subject with the juvenile mouse). The fifth exposure session included a novel juvenile mouse. Time spent interacting with the juvenile mouse was recorded.

[5] = test system: animal models simulating parts of the Alzheimer's disease pathology; conditions: in vivo; cited from earlier work
[6] = test system: peripheral blood mononuclear cells (PBMCs); conditions: cited from earlier work

With CC[C@H](C)[C@H](NC(=O)[C@H](CO)NC(=O)[C@@H](NC(=O)[C@@H]1CCCN1C(=O)[C@H](C)NC(=O)[C@@H](N)CC(N)=O)C(C)C)C(=O)N1CCC[C@H]1C(=O)N[C@@H](CCC(N)=O)C(=O)O [NAP] the “effect on clozapine induced cell death” value ([1]; NAP 10^−15M with clozapine 20 μg/ml, FIG. 1) was “reversed”, the “cell mortality with NAP alone” value ([1]; NAP alone 10^−15M-10^−10 M, FIG. 2) was “does not affect cell mortality; also recorded: did not affect cell mortality” and the “protection against extensive cell death” value ([2]; >40% cell death, compared against cultures supplemented with serum, FIG. 7) was “Neither NAP nor galantamine protected”. The “protection against serum deprivation” value ([2]; NAP alone, FIG. 5) was “provided protection”, the “hyper-locomotion (path length) in open field” value (STOP+/− mice [3]; Example 3, STOP+/− male mice, NAP intranasal 0.5 μg/mouse/day or clozapine 10 mg/kg IP, FIG. 8) was “significantly decreased the hyper-locomotion; also recorded: significantly reduced the path length” and the open field activity (STOP+/− mice [3]; Example 4, STOP+/− mice, NAP intranasal 0.5 microgram/mouse/day, clozapine injection 3 mg/kg/day, FIG. 11) was “also reduced the activity”. The social recognition behavior (STOP+/− mice [4]) was “partially ameliorated”, the “protection in Alzheimer's disease pathology models” value [5] was “protective” and the anti-CD3-/anti-CD28-stimulated proliferation [6] was “suppressed”. For the same compound, the “expression of CD69, CD154 and IFN-γ” value [6] was “decreased the expression”.
